Laboratory results as given in ChEMBL document CHEMBL1667805, “Synthesis of new C5-(1-substituted-1,2,3-triazol-4 or 5-yl)-2'-deoxyuridines and their antiviral evaluation” (Eur J Med Chem, 2011).
The source made the active and inactive calls. The calls are words filed in the database; no cut-off is given here.

Tests used:
Punta Toro virus = format: functional, organism-based; settings: Vero
Influenza A virus [1] = format: functional, organism-based; settings: H1N1, MDCK
Influenza B virus = format: functional, organism-based; settings: MDCK
Human respirovirus 3 = format: functional, organism-based; settings: Vero
Human betaherpesvirus 5 [2] = assay: microbe, parasite or virus in culture; settings: Human betaherpesvirus 5, AD169, HEL
Influenza A virus [3] = format: functional, organism-based; settings: H3N2, MDCK
Coxsackievirus B4 = format: functional, organism-based; settings: HeLa
L1210 = assay: cells; settings: Mus musculus, L1210, 48 h
in vitro = settings: human, HEL cells
CCRF-CEM = assay: cells; settings: Homo sapiens, 72 h
Human alphaherpesvirus 3 [4] = assay: microbe, parasite or virus in culture; settings: Human alphaherpesvirus 3, strain Oka vaccine, HEL
[5] = test system: Mammalian orthoreovirus 1; format: functional, organism-based; settings: Vero
Human alphaherpesvirus 2 = assay: microbe, parasite or virus in culture; settings: Human alphaherpesvirus 2, strain G, HEL
[6] = test system: Human immunodeficiency virus 2; assay: Antiviral activity against HIV2 ROD infected in human […] cells assessed as virus-induced CEM giant cell formation after 4 days; format: functional, organism-based; settings: ISOLATE ROD
Vaccinia virus = assay: microbe, parasite or virus in culture; settings: Orthopoxvirus vaccinia, HEL
Human alphaherpesvirus 1 [7] = assay: microbe, parasite or virus in culture; settings: Human alphaherpesvirus 1, KOS, HEL
[8] = test system: Vesicular stomatitis virus; format: functional, organism-based; settings: HeLa
[9] = test system: Human immunodeficiency virus 1; assay: Antiviral activity against HIV1 3B infected in human […] cells assessed as virus-induced CEM giant cell formation after 4 days; format: functional, organism-based
Human alphaherpesvirus 1 [10] = assay: microbe, parasite or virus in culture; settings: Human alphaherpesvirus 1, KOS, HEL; remark: listed apart in the source
Sindbis virus = format: functional, organism-based; settings: Vero
HeLa = assay: cells; settings: Homo sapiens, 96 h
Human betaherpesvirus 5 [11] = assay: microbe, parasite or virus in culture; settings: Human betaherpesvirus 5, Davis, HEL
Human alphaherpesvirus 3 [12] = assay: microbe, parasite or virus in culture; settings: Human alphaherpesvirus 3, 07-1, HEL
[13] = test system: Vesicular stomatitis virus; format: functional, organism-based; settings: MDCK

SMILES	inhibition (Punta Toro virus)	inhibition (Influenza A virus [1])	inhibition (Influenza B virus)	inhibition (Human respirovirus 3)	EC50 (Human betaherpesvirus 5 [2])	inhibition (Influenza A virus [3])	inhibition (Coxsackievirus B4)	IC50 (L1210)	CC50 at 72 h (in vitro)	MCC at 72 h (in vitro)	IC50 (CCRF-CEM)	EC50 (Human alphaherpesvirus 3 [4])	inhibition [5]	EC50 (Human alphaherpesvirus 2)	inhibition [6]	EC50 (Vaccinia virus)	EC50 (Human alphaherpesvirus 1 [7])	inhibition [8]	inhibition [9]	EC50 (Human alphaherpesvirus 1 [10])	also measured
CC(C)(C)c1ccc(-n2cc(-c3cn([C@H]4C[C@H](O)[C@@H](CO)O4)c(=O)[nH]c3=O)nn2)cc1	inactive	inactive	inactive	inactive	> 50 µM	inactive	inactive	15 µM	12.4 µM	230 µM	11 µM	7.7 µM	inactive	> 50 µM	inactive	37 µM	> 50 µM	inactive	inactive	> 50 µM	inhibition (Sindbis virus): inactive; IC50 (HeLa): 9 µM; EC50 (Human betaherpesvirus 5 [11]): > 50 µM; EC50 (Human alphaherpesvirus 3 [12]): 35 µM; inhibition [13]: inactive
O=c1[nH]c(=O)n([C@H]2C[C@H](O)[C@@H](CO)O2)cc1-c1cn(-c2ccc(Br)cc2)nn1	inactive	inactive	inactive	inactive	45 µM	inactive	inactive	4.6 µM	1 µM	≥ 44 µM	1.8 µM	2.6 µM	inactive	≥ 100 µM	inactive	31 µM	132 µM	inactive	inactive	132 µM	inhibition (Sindbis virus): inactive; IC50 (HeLa): 1.37 µM; EC50 (Human betaherpesvirus 5 [11]): 25 µM; EC50 (Human alphaherpesvirus 3 [12]): 14 µM; inhibition [13]: inactive
O=c1[nH]c(=O)n([C@H]2C[C@H](O)[C@@H](CO)O2)cc1-c1cn(-c2ccc(OC(F)(F)F)cc2)nn1	inactive	inactive	inactive	inactive	> 220 µM	inactive	inactive	50 µM	47 µM	> 220 µM	35 µM	> 50 µM	inactive	> 50 µM	inactive	> 50 µM	> 50 µM	inactive	inactive	> 50 µM	inhibition (Sindbis virus): inactive; IC50 (HeLa): 37 µM; EC50 (Human betaherpesvirus 5 [11]): > 220 µM; EC50 (Human alphaherpesvirus 3 [12]): > 50 µM; inhibition [13]: inactive
O=c1[nH]c(=O)n([C@H]2C[C@H](O)[C@@H](CO)O2)cc1-c1cn(-c2ccc(Cl)cc2)nn1	inactive	inactive	inactive	inactive	> 240 µM	inactive	inactive	14.8 µM	7.4 µM	> 240 µM	13 µM	41 µM	inactive	> 240 µM	inactive	> 240 µM	> 240 µM	inactive	inactive	> 240 µM	inhibition (Sindbis virus): inactive; IC50 (HeLa): 4 µM; EC50 (Human betaherpesvirus 5 [11]): > 131 µM; EC50 (Human alphaherpesvirus 3 [12]): 48 µM; inhibition [13]: inactive
CCCCc1ccc(-n2cc(-c3cn([C@H]4C[C@H](O)[C@@H](CO)O4)c(=O)[nH]c3=O)nn2)cc1	inactive	inactive	inactive	inactive	> 50 µM	inactive	inactive	15 µM	147 µM	230 µM	60 µM	> 50 µM	inactive	> 50 µM	inactive	> 50 µM	> 50 µM	inactive	inactive	> 50 µM	inhibition (Sindbis virus): inactive; IC50 (HeLa): 23 µM; EC50 (Human betaherpesvirus 5 [11]): > 50 µM; EC50 (Human alphaherpesvirus 3 [12]): > 50 µM; inhibition [13]: inactive
O=c1[nH]c(=O)n([C@H]2C[C@H](O)[C@@H](CO)O2)cc1-c1cn(-c2c(F)cccc2F)nn1	inactive	inactive	inactive	inactive	29 µM	inactive	inactive	2.9 µM	1.5 µM	≥ 10 µM	1.5 µM	3.1 µM	inactive	≥ 50 µM	inactive	38 µM	36 µM	inactive	inactive	31 µM	inhibition (Sindbis virus): inactive; IC50 (HeLa): 0.51 µM; EC50 (Human betaherpesvirus 5 [11]): 18 µM; EC50 (Human alphaherpesvirus 3 [12]): 6.1 µM; inhibition [13]: inactive
CC(C)c1ccc(-n2cc(-c3cn([C@H]4C[C@H](O)[C@@H](CO)O4)c(=O)[nH]c3=O)nn2)cc1	inactive	inactive	inactive	inactive	240 µM	inactive	inactive	29 µM	7.4 µM	> 240 µM	22 µM	20 µM	inactive	> 10 µM	inactive	> 10 µM	> 10 µM	inactive	inactive	> 10 µM	inhibition (Sindbis virus): inactive; IC50 (HeLa): 6.2 µM; EC50 (Human betaherpesvirus 5 [11]): 185 µM; EC50 (Human alphaherpesvirus 3 [12]): 97 µM; inhibition [13]: inactive
